Test results as given in ChEMBL document CHEMBL1151757, “Synthesis, radiosynthesis, and biological evaluation of fluorine-18-labeled 2beta-carbo(fluoroalkoxy)-3beta-(3'-((Z)-2-haloethenyl)phenyl)nortropanes: candidate radioligands for in vivo imaging of the serotonin transporter with positron emission tomography” (J Med Chem, 2008).

Experiments:
[1] = tested on: Thalamus; experiment: Drug uptake in anesthetized cynomolgus monkey brain thalamus after 45 mins postinjection; assay type: ADME, organism-based, Macaca fascicularis; design: unit not given here; conditions: in vivo, 0.75 h
[2] = Ratio of drug uptake in caudate to cerebellum in anesthetized cynomolgus monkey after 12.5 mins postinjection; assay type: ADME, organism-based, Macaca fascicularis; conditions: in vivo
[3] = tested on: Caudate; experiment: Drug uptake in anesthetized cynomolgus monkey brain caudate after 22.5 mins postinjection; assay type: ADME, organism-based, Macaca fascicularis, Caudate nucleus; conditions: in vivo, 0.375 h
[4] = tested on: Midbrain; experiment: Drug uptake in anesthetized cynomolgus monkey brain midbrain after 3.5 mins postinjection; assay type: ADME, organism-based, Macaca fascicularis; design: unit not given here; conditions: in vivo
[5] = tested on: Midbrain; experiment: Drug uptake in anesthetized cynomolgus monkey brain midbrain after 85 mins postinjection; assay type: ADME, organism-based, Macaca fascicularis; design: unit not given here; conditions: in vivo
[6] = Ratio of drug uptake in putamen to cerebellum in anesthetized cynomolgus monkey after 235 mins postinjection; assay type: ADME, organism-based, Macaca fascicularis; conditions: in vivo
[7] = Drug uptake in anesthetized cynomolgus monkey brain frontal lobe after 235 mins postinjection; assay type: ADME, organism-based, Macaca fascicularis; conditions: in vivo
[8] = tested on: Putamen; experiment: Drug uptake in anesthetized cynomolgus monkey brain putamen after 205 mins postinjection; assay type: ADME, organism-based, Macaca fascicularis; conditions: in vivo
[9] = Ratio of drug uptake in midbrain to cerebellum in anesthetized cynomolgus monkey after 185 mins postinjection; assay type: ADME, organism-based, Macaca fascicularis; conditions: in vivo
[10] = tested on: Pons; experiment: Drug uptake in anesthetized cynomolgus monkey brain pons after 185 mins postinjection; assay type: ADME, organism-based, Macaca fascicularis; conditions: in vivo
[11] = tested on: Pons; experiment: Drug uptake in anesthetized cynomolgus monkey brain pons after 0.5 mins postinjection; assay type: ADME, organism-based, Macaca fascicularis; conditions: in vivo
[12] = Drug uptake in anesthetized cynomolgus monkey brain occipital lobe after 0.5 mins postinjection; assay type: ADME, organism-based, Macaca fascicularis; conditions: in vivo
[13] = Ratio of drug uptake in frontal lobe to cerebellum in anesthetized cynomolgus monkey after 35 mins postinjection; assay type: ADME, organism-based, Macaca fascicularis; conditions: in vivo
[14] = tested on: Putamen; experiment: Drug uptake in anesthetized cynomolgus monkey brain putamen after 6.5 mins postinjection; assay type: ADME, organism-based, Macaca fascicularis; design: unit not given here; conditions: in vivo
[15] = tested on: Putamen; experiment: Drug uptake in anesthetized cynomolgus monkey brain putamen after 35 mins postinjection; assay type: ADME, organism-based, Macaca fascicularis; design: unit not given here; conditions: in vivo
[16] = Drug uptake in anesthetized cynomolgus monkey brain occipital lobe after 125 mins postinjection; assay type: ADME, organism-based, Macaca fascicularis; conditions: in vivo
[17] = tested on: Caudate; experiment: Drug uptake in anesthetized cynomolgus monkey brain caudate after 155 mins postinjection; assay type: ADME, organism-based, Macaca fascicularis, Caudate nucleus; conditions: in vivo
[18] = Drug uptake in anesthetized cynomolgus monkey brain frontal lobe after 195 mins postinjection; assay type: ADME, organism-based, Macaca fascicularis; conditions: in vivo, 3.25 h
[19] = tested on: Thalamus; experiment: Drug uptake in anesthetized cynomolgus monkey brain thalamus after 9.5 mins postinjection; assay type: ADME, organism-based, Macaca fascicularis; design: unit not given here; conditions: in vivo
[20] = Ratio of drug uptake in occipital lobe to cerebellum in anesthetized cynomolgus monkey after 125 mins postinjection; assay type: ADME, organism-based, Macaca fascicularis; conditions: in vivo
[21] = tested on: Pons; experiment: Drug uptake in anesthetized cynomolgus monkey brain pons after 155 mins postinjection; assay type: ADME, organism-based, Macaca fascicularis; conditions: in vivo
[22] = Ratio of drug uptake in thalamus to cerebellum in anesthetized cynomolgus monkey after 155 mins postinjection; assay type: ADME, organism-based, Macaca fascicularis; conditions: in vivo
[23] = tested on: Medulla; experiment: Drug uptake in anesthetized cynomolgus monkey brain medulla after 165 mins postinjection; assay type: ADME, organism-based, Macaca fascicularis; conditions: in vivo, 2.75 h
[24] = tested on: Pons; experiment: Drug uptake in anesthetized cynomolgus monkey brain pons after 18.5 mins postinjection; assay type: ADME, organism-based, Macaca fascicularis; conditions: in vivo
[25] = tested on: Pons; experiment: Drug uptake in anesthetized cynomolgus monkey brain pons after 115 mins postinjection; assay type: ADME, organism-based, Macaca fascicularis; conditions: in vivo
[26] = Ratio of drug uptake in occipital lobe to cerebellum in anesthetized cynomolgus monkey after 12.5 mins postinjection; assay type: ADME, organism-based, Macaca fascicularis; conditions: in vivo
[27] = tested on: Thalamus; experiment: Drug uptake in anesthetized cynomolgus monkey brain thalamus after 35 mins postinjection; assay type: ADME, organism-based, Macaca fascicularis; design: unit not given here; conditions: in vivo
[28] = Drug uptake in anesthetized cynomolgus monkey brain occipital lobe after 215 mins postinjection; assay type: ADME, organism-based, Macaca fascicularis; conditions: in vivo
[29] = Ratio of drug uptake in midbrain to cerebellum in anesthetized cynomolgus monkey after 2.5 mins postinjection; assay type: ADME, organism-based, Macaca fascicularis; conditions: in vivo
[30] = tested on: Pons; experiment: Drug uptake in anesthetized cynomolgus monkey brain pons after 35 mins postinjection; assay type: ADME, organism-based, Macaca fascicularis; conditions: in vivo
[31] = tested on: Medulla; experiment: Drug uptake in anesthetized cynomolgus monkey brain medulla after 2.5 mins postinjection; assay type: ADME, organism-based, Macaca fascicularis; conditions: in vivo
[32] = tested on: Caudate; experiment: Drug uptake in anesthetized cynomolgus monkey brain caudate after 6.5 mins postinjection; assay type: ADME, organism-based, Macaca fascicularis, Caudate nucleus; conditions: in vivo
[33] = Ratio of drug uptake in medulla to cerebellum in anesthetized cynomolgus monkey after 155 mins postinjection; assay type: ADME, organism-based, Macaca fascicularis; conditions: in vivo
[34] = tested on: Pons; experiment: Drug uptake in anesthetized cynomolgus monkey brain pons after 215 mins postinjection; assay type: ADME, organism-based, Macaca fascicularis; conditions: in vivo
[35] = Ratio of drug uptake in pons to cerebellum in anesthetized cynomolgus monkey after 6.5 mins postinjection; assay type: ADME, organism-based, Macaca fascicularis; conditions: in vivo
[36] = tested on: Putamen; experiment: Drug uptake in anesthetized cynomolgus monkey brain putamen after 225 mins postinjection; assay type: ADME, organism-based, Macaca fascicularis; conditions: in vivo, 3.75 h
[37] = Ratio of drug uptake in putamen to cerebellum in anesthetized cynomolgus monkey after 35 mins postinjection; assay type: ADME, organism-based, Macaca fascicularis; conditions: in vivo
[38] = tested on: Putamen; experiment: Drug uptake in anesthetized cynomolgus monkey brain putamen after 12.5 mins postinjection; assay type: ADME, organism-based, Macaca fascicularis; design: unit not given here; conditions: in vivo
[39] = tested on: Putamen; experiment: Drug uptake in anesthetized cynomolgus monkey brain putamen after 185 mins postinjection; assay type: ADME, organism-based, Macaca fascicularis; conditions: in vivo
[40] = tested on: Putamen; experiment: Drug uptake in anesthetized cynomolgus monkey brain putamen after 125 mins postinjection; assay type: ADME, organism-based, Macaca fascicularis; conditions: in vivo
[41] = tested on: Pons; experiment: Drug uptake in anesthetized cynomolgus monkey brain pons after 205 mins postinjection; assay type: ADME, organism-based, Macaca fascicularis; conditions: in vivo
[42] = tested on: Pons; experiment: Drug uptake in anesthetized cynomolgus monkey brain pons after 235 mins postinjection; assay type: ADME, organism-based, Macaca fascicularis; conditions: in vivo
[43] = tested on: Thalamus; experiment: Drug uptake in anesthetized cynomolgus monkey brain thalamus after 4.5 mins postinjection; assay type: ADME, organism-based, Macaca fascicularis; design: unit not given here; conditions: in vivo, 0.075 h
[44] = tested on: Thalamus; experiment: Drug uptake in anesthetized cynomolgus monkey brain thalamus after 55 mins postinjection; assay type: ADME, organism-based, Macaca fascicularis; design: unit not given here; conditions: in vivo
[45] = Drug uptake in anesthetized cynomolgus monkey brain cerebellum after 65 mins postinjection; assay type: ADME, organism-based, Macaca fascicularis; conditions: in vivo
[46] = Drug uptake in anesthetized cynomolgus monkey brain frontal lobe after 215 mins postinjection; assay type: ADME, organism-based, Macaca fascicularis; conditions: in vivo
[47] = Drug uptake in anesthetized cynomolgus monkey brain occipital lobe after 6.5 mins postinjection; assay type: ADME, organism-based, Macaca fascicularis; design: unit not given here; conditions: in vivo
[48] = tested on: Medulla; experiment: Drug uptake in anesthetized cynomolgus monkey brain medulla after 3.5 mins postinjection; assay type: ADME, organism-based, Macaca fascicularis; conditions: in vivo
[49] = Drug uptake in anesthetized cynomolgus monkey brain cerebellum after 6.5 mins postinjection; assay type: ADME, organism-based, Macaca fascicularis; conditions: in vivo
[50] = tested on: Medulla; experiment: Drug uptake in anesthetized cynomolgus monkey brain medulla after 105 mins postinjection; assay type: ADME, organism-based, Macaca fascicularis; conditions: in vivo, 1.75 h

`O=C(OCC[18F])C1C2CCC(CC1c1ccc(/C=C\I)cc1)N2` (stereo not given) gave a Drug uptake [1] of 3.63, a Ratio [2] of 0.8 and a Drug uptake [3] of 2.05. The Drug uptake [4] was 0.84, the Drug uptake [5] was 4.42 and the Ratio [6] was 3.8. For the same compound, the Drug uptake [7] was 1.51, the Drug uptake [8] was 3.94 and the Ratio [9] was 3.5. For the same compound, the Drug uptake [10] was 3.44, the Drug uptake [11] was 0 and the Drug uptake [12] was 0. The Ratio [13] was 0.7, the Drug uptake [14] was 1.89 and the Drug uptake [15] was 3.57. The Drug uptake [16] was 2.24, the Drug uptake [17] was 3.03 and the Drug uptake [18] was 1.7. The Drug uptake [19] was 2.06, the Ratio [20] was 1.3 and the Drug uptake [21] was 3.43. For the same compound, the Ratio [22] was 2.7, the Drug uptake [23] was 3.58 and the Drug uptake [24] was 2.17. For the same compound, the Drug uptake [25] was 3.65, the Ratio [26] was 0.8 and the Drug uptake [27] was 3.31. It also gave a Drug uptake [28] of 1.68, a Ratio [29] of 0.9 and a Drug uptake [30] of 2.74. The Drug uptake [31] was 0.5, the Drug uptake [32] was 1.13 and the Ratio [33] was 2.5. It also gave a Drug uptake [34] of 3.39, a Ratio [35] of 0.8 and a Drug uptake [36] of 3.79. The Ratio [37] was 1.4, the Drug uptake [38] was 2.59 and the Drug uptake [39] was 4.01. For the same compound, the Drug uptake [40] was 4.34, the Drug uptake [41] was 3.34 and the Drug uptake [42] was 3.06. It also gave a Drug uptake [43] of 1.21, a Drug uptake [44] of 3.78 and a Drug uptake [45] of 2.44. For the same compound, the Drug uptake [46] was 1.6, the Drug uptake [47] was 1.21 and the Drug uptake [48] was 0.94. The Drug uptake [49] was 1.79 and the Drug uptake [50] was 3.82.
